Laboratory results from the NIST ThermoML archive (doi:10.1016/j.fluid.2016.02.011).
Numbers after ± are expanded uncertainties.

Assay: heat capacity at constant pressure per volume; xn = mol fraction of the nth substance listed
Settings: 102.6 kPa, Liquid, DSC, Micro DSC III, x2 = 0.048

Which results are given for `Brc1ccccc1` [bromobenzene] + CCCCCC[n+]1ccn(C)c1.O=S(=O)([N-]S(=O)(=O)C(F)(F)F)C(F)(F)F?
heat capacity (287.65 K): 1529000 ± 59000 J/K/m3; heat capacity (287.9 K): 1529000 ± 59000 J/K/m3; heat capacity (288.19 K): 1529000 ± 59000 J/K/m3; heat capacity (288.46 K): 1529000 ± 59000 J/K/m3; heat capacity (288.75 K): 1530000 ± 60000 J/K/m3; heat capacity (289.02 K): 1531000 ± 59000 J/K/m3; heat capacity (289.31 K): 1531000 ± 59000 J/K/m3; heat capacity (289.59 K): 1531000 ± 59000 J/K/m3; heat capacity (289.87 K): 1532000 ± 59000 J/K/m3; heat capacity (290.14 K): 1533000 ± 59000 J/K/m3; heat capacity (290.43 K): 1533000 ± 59000 J/K/m3; heat capacity (290.74 K): 1533000 ± 59000 J/K/m3; heat capacity (290.98 K): 1533000 ± 59000 J/K/m3; heat capacity (291.26 K): 1534000 ± 59000 J/K/m3; heat capacity (291.54 K): 1535000 ± 59000 J/K/m3; heat capacity (291.82 K): 1537000 ± 60000 J/K/m3; heat capacity (292.1 K): 1539000 ± 60000 J/K/m3; heat capacity (292.38 K): 1541000 ± 60000 J/K/m3; heat capacity (292.7 K): 1546000 ± 60000 J/K/m3; heat capacity (292.8 K): 1536000 ± 60000 J/K/m3; heat capacity (292.98 K): 1534000 ± 59000 J/K/m3; heat capacity (293.27 K): 1533000 ± 59000 J/K/m3; heat capacity (293.53 K): 1533000 ± 59000 J/K/m3; heat capacity (293.82 K): 1533000 ± 59000 J/K/m3; heat capacity (294.09 K): 1533000 ± 59000 J/K/m3; heat capacity (294.37 K): 1533000 ± 59000 J/K/m3; heat capacity (294.66 K): 1533000 ± 59000 J/K/m3; heat capacity (294.94 K): 1533000 ± 59000 J/K/m3; heat capacity (295.22 K): 1534000 ± 59000 J/K/m3; heat capacity (295.5 K): 1534000 ± 59000 J/K/m3; heat capacity (295.78 K): 1534000 ± 59000 J/K/m3; heat capacity (296.06 K): 1534000 ± 59000 J/K/m3; heat capacity (296.34 K): 1534000 ± 59000 J/K/m3; heat capacity (296.62 K): 1534000 ± 59000 J/K/m3; heat capacity (296.9 K): 1534000 ± 59000 J/K/m3; heat capacity (297.18 K): 1534000 ± 59000 J/K/m3; heat capacity (297.46 K): 1535000 ± 59000 J/K/m3; heat capacity (297.74 K): 1535000 ± 59000 J/K/m3; heat capacity (298.02 K): 1536000 ± 59000 J/K/m3; heat capacity (298.3 K): 1536000 ± 59000 J/K/m3; heat capacity (298.58 K): 1536000 ± 59000 J/K/m3; heat capacity (298.86 K): 1536000 ± 59000 J/K/m3; heat capacity (299.14 K): 1536000 ± 59000 J/K/m3; heat capacity (299.42 K): 1537000 ± 60000 J/K/m3; heat capacity (299.7 K): 1537000 ± 60000 J/K/m3; heat capacity (299.98 K): 1537000 ± 60000 J/K/m3; heat capacity (300.26 K): 1537000 ± 60000 J/K/m3; heat capacity (300.54 K): 1538000 ± 60000 J/K/m3; heat capacity (300.82 K): 1538000 ± 60000 J/K/m3; heat capacity (301.1 K): 1538000 ± 60000 J/K/m3; heat capacity (301.33 K): 1538000 ± 60000 J/K/m3; heat capacity (301.6 K): 1538000 ± 60000 J/K/m3; heat capacity (302.37 K): 1539000 ± 60000 J/K/m3; heat capacity (302.98 K): 1539000 ± 60000 J/K/m3; heat capacity (303.6 K): 1539000 ± 60000 J/K/m3; heat capacity (304.21 K): 1540000 ± 60000 J/K/m3; heat capacity (304.82 K): 1540000 ± 60000 J/K/m3; heat capacity (305.43 K): 1541000 ± 60000 J/K/m3; heat capacity (306.05 K): 1541000 ± 60000 J/K/m3; heat capacity (306.66 K): 1541000 ± 60000 J/K/m3; heat capacity (307.27 K): 1542000 ± 60000 J/K/m3; heat capacity (307.88 K): 1542000 ± 60000 J/K/m3; heat capacity (308.5 K): 1542000 ± 60000 J/K/m3; heat capacity (309.11 K): 1543000 ± 60000 J/K/m3; heat capacity (309.72 K): 1543000 ± 60000 J/K/m3; heat capacity (310.34 K): 1544000 ± 60000 J/K/m3; heat capacity (310.95 K): 1544000 ± 60000 J/K/m3; heat capacity (311.56 K): 1545000 ± 60000 J/K/m3; heat capacity (312.18 K): 1545000 ± 60000 J/K/m3; heat capacity (312.79 K): 1545000 ± 60000 J/K/m3; heat capacity (313.4 K): 1546000 ± 60000 J/K/m3; heat capacity (314.01 K): 1546000 ± 60000 J/K/m3; heat capacity (314.63 K): 1547000 ± 60000 J/K/m3; heat capacity (315.24 K): 1547000 ± 60000 J/K/m3; heat capacity (315.85 K): 1548000 ± 60000 J/K/m3; heat capacity (316.46 K): 1548000 ± 60000 J/K/m3; heat capacity (317.08 K): 1548000 ± 60000 J/K/m3; heat capacity (317.69 K): 1549000 ± 60000 J/K/m3; heat capacity (318.3 K): 1549000 ± 60000 J/K/m3; heat capacity (318.92 K): 1550000 ± 60000 J/K/m3; heat capacity (319.53 K): 1550000 ± 60000 J/K/m3; heat capacity (320.14 K): 1551000 ± 60000 J/K/m3; heat capacity (320.45 K): 1551000 ± 60000 J/K/m3; heat capacity (320.75 K): 1551000 ± 60000 J/K/m3; heat capacity (321.98 K): 1552000 ± 60000 J/K/m3; heat capacity (322.59 K): 1552000 ± 60000 J/K/m3; heat capacity (323.21 K): 1553000 ± 60000 J/K/m3; heat capacity (323.82 K): 1553000 ± 60000 J/K/m3; heat capacity (324.45 K): 1553000 ± 60000 J/K/m3; heat capacity (325.05 K): 1554000 ± 60000 J/K/m3; heat capacity (325.66 K): 1554000 ± 60000 J/K/m3; heat capacity (326.27 K): 1555000 ± 60000 J/K/m3; heat capacity (326.88 K): 1555000 ± 60000 J/K/m3; heat capacity (327.5 K): 1556000 ± 60000 J/K/m3; heat capacity (328.11 K): 1556000 ± 60000 J/K/m3; heat capacity (328.72 K): 1557000 ± 60000 J/K/m3; heat capacity (329.33 K): 1557000 ± 60000 J/K/m3; heat capacity (329.95 K): 1558000 ± 60000 J/K/m3; heat capacity (330.56 K): 1558000 ± 60000 J/K/m3; heat capacity (331.02 K): 1559000 ± 60000 J/K/m3
